Laboratory results reported in ChEMBL document CHEMBL5143589, “Drugging the Next Undruggable KRAS Allele-Gly12Asp” (J Med Chem, 2022).

Columns and labels:
[1] = Binding affinity to KRAS […] mutant (unknown origin) assessed as dissociation constant; parameters: species or system Homo sapiens
[2] = Inhibition of ERK phosphorylation in human AGS cells; assay type: cell-based
AGS = assay: Antiproliferative activity against human AGS cells assessed as reduction of cell viability; assay type: functional, cell-based
MKN-1 = assay: Antiproliferative activity against human MKN-1 cells assessed as reduction of cell viability; assay type: functional, cell-based
GTPase KRas [3] = biological target: T1, GTPase KRas (Homo sapiens, UniProt P01116); assay: Binding affinity to KRAS (unknown origin) assessed as inhibition constant
Target sequence in this assay (P01116 whole entry): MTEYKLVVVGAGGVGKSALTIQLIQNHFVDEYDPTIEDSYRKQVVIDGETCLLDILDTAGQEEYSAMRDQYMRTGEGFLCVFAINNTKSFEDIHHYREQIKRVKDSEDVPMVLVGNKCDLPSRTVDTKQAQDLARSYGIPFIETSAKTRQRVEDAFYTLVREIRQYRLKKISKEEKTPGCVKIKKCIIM

GTPase KRas [4] = biological target: T1, GTPase KRas
Target sequence in this assay (P01116 whole entry, looked up): as the sequence (P01116 whole entry) above
Description: Binding affinity to KRAS (unknown origin) assessed as inactivation constant

[5] = Inhibition of KRAS […] mutant (unknown origin) by HTRF assay; parameters: species or system Homo sapiens

CN1CCC[C@H]1COc1nc(N2CCNCC2)c2cnc(-c3cccc4cccc(Cl)c34)c(F)c2n1
Kd [1]: 3500 nM

C#Cc1c(F)ccc2cc(O)cc(-c3ncc4c(N5CC6CCC(C5)N6)nc(OC[C@@]56CCCN5C[C@H](F)C6)nc4c3F)c12 [MRTX-1133]
Kd [1]: 0.0002 nM | IC50 [2]: 2 nM | IC50 (AGS): 6 nM | IC50 (MKN-1): > 3000 nM

C=CC(=O)N1CCN(c2ncnc3c(F)c(-c4c(O)cccc4F)c(Cl)cc23)CC1
Ki (GTPase KRas [3]): 31000 nM | Kinact (GTPase KRas [4]): 0.03 s⁻¹

Oc1cc(-c2ncc3c(N4CC5CCC(C4)N5)nc(OC[C@@]45CCCN4C[C@H](F)C5)nc3c2F)c2ccccc2c1
IC50 [5]: ≤ 2 nM

CN1CCC[C@H]1COc1nc(N2CC3CCC(C2)N3)c2cnc(-c3cc(O)cc4ccccc34)c(F)c2n1
Kd [1]: 0.8 nM | IC50 [5]: 5 nM

C#Cc1c(F)ccc2cccc(-c3ncc4c(N5CC6CCC(C5)N6)nc(OCC56CCCN5CCC6)nc4c3F)c12
IC50 [5]: ≤ 2 nM
